Assay results published in patent publication US4554355A, “Heterocyclic compounds as antiallergic agents” (American Home Products Corporation, priority 1984, dated 1985).
pIC50: −log10 of the molar value. Where two headings read alike, the source gives them in different places.

Columns and labels:
[1] = system: synthesis of 5-HETE and LTB4 by rat glycogen-elicited polymorphonuclear leukocytes; test: inhibition of the synthesis of 5-HETE and LTB4 by rat glycogen-elicited polymorphonuclear leukocytes; assay type: cell-based, rat (female Wistar); conditions: rat PMN, A23187 10 μM; for pIC50: Leukocyte, 10 min preincubation
Method: This is especially true with respect to 5,12-diHETE, which is also denoted as LTB4 [see Ford-Hitchinson, J. Roy. Soc. Med., 74, 831 (1981)]. The assay of this Example measures the ability of the compounds of the invention to inhibit the synthesis of 5-HETE and LTB4 by rat glycogen-elicited polymorphonuclear leukocytes.
The assay is carried out as follows:
Peritoneal PMN are obtained from female Wistar rats (150-250 g) that received an i.p. injection of 6% glycogen (10 ml). After 24 hours, rats are killed by CO2 asphyxiation and peritoneal cells are harvested by peritoneal lavage using Ca^++ and Mg^++ free Hanks' balanced salt solution (HBSS). The peritoneal exudate is centrifuged at 400 g for 10 minutes. After centrifugation, the lavaged fluid is removed and the cell pellet is resuspended in HBSS containing Ca^++ and Mg^++ and 10 mM L-cysteine at a concentration of 2×10^7 cells/ml. To 1 ml portions of cell suspension, test drugs or vehicle are added and incubated at 37° C. for 10 minutes. Following this preincubation, the calcium ionophore (10 μM), A23187, is added together with 0.5 μCi[^14 C]arachidonic acid and further incubated for 10 minutes. The reaction is stopped by the addition of ice cold water (3 ml) and acidifying to pH 3.5. Lipoxygenase products are then extracted twice into diethyl ether. The pooled ether extracts are evaporated to dryness under nitrogen and the residue is redissolved in a small volume of methanol and spotted on aluminum backed pre-coated thin layer chromatographic plates. The samples are then co-chromatographed with authentic reference 5-HETE, 12-HETE and 5,12-diHETE in the solvent system--hexane:ether:acetic acid (50:50:3). After chromatography, the areas associated with 5-HETE and 5,12-diHETE standards are identified by autoradiography, cut out and quantitated by liquid scintillation.
Results are expressed as % inhibition of [^14 C]5-HETE and [^14 C]LTB4 (5,12-HETE) synthesis. [formula]
Testing compounds of the invention in this assay and using the antioxidant 3-amino-1-[m-(trifluoromethyl)phenyl]-2-pyrazoline (BW755C) as a standard, the following results are obtained.

[2] = system: LTD4 induced bronchospasm; test: in vivo inhibition of bronchospasm induced in guinea pigs by exogenously administered leukotriene LTD4; parameters: species or system guinea pig (male Hartley strain); conditions: guinea pig, 50 mg/kg intraduodenal, 10 minutes before induction
Method: The assay of this Example measures the in vivo ability of the compounds of the invention to inhibit the bronchospasm induced in guinea pigs by the exogenously administered leukotrienes C4 and/or D4. This assay is essentially a measure of the SRS-A antagonist properties of the compounds tested.
This assay is carried out as follows:
Male Hartley strain guinea pigs (350-600 g) are anesthetized with pentobarbital sodium (50 mg/kg, i.p.). The jugular vein is cannulated for injection of drugs and the carotid artery for monitoring blood pressure. The trachea is cannulated for artificial ventilation by a miniature Starling pump and for indirect measurement of respiratory volume changes as described infra. Additional pentobarbital sodium (15 mg/kg, i.v.) is administered to arrest spontaneous respiration. Submaximal bronchoconstrictor responses are established in control animals by varying the dose-levels of leukotriene. Intravenous dose-levels for LTC4 range from 1 to 2 μg/kg and for LTD4 the range is from 0.3 to 1 μg/kg. The aerosol bronchoprovocation dose for LTC4 is generated from 1.6 μM solution and for LTD4 from a 2.0 μM solution.
Test drugs are administered either intravenously, intraduodenally, by aerosol or orally at 1 or 10 minutes before induction of bronchospasm by administration of either LTC4 or LTD4 at the predetermined dose-levels. Aerosols of soluble drugs or leukotrienes are produced in-line for 10 seconds only by actuation of an ultrasonic nebulizer (Monaghan). Aerosolized drug dosage is expressed in terms of solution concentration and by a fixed aerosol exposure time (approximately 10 seconds). Control animals receive saline in place of drug.
Respiratory volume changes are determined by a calibrated piston whose travel is recorded, via a linear transducer, on a Beckman Dynograph recorder. Maximal bronchoconstrictor volume is determined by clamping off the trachea at the end of the experiment. Overflow volumes at 1, 3 and 5 minutes are obtained from the recorded charts.
The overflow volume at 1, 3 and 5 minutes is expressed as a percentage of maximal bronchoconstriction. Combined group values are used from each of these time intervals to determine the inhibitory effect of drugs. [formula] Students t-test for unpaired data is used to determine statistical significance. Dose response curves are generated and ED50 doses are interpolated from the regression lines.
Results for a compound of the invention in this assay, using LTD4 for induction of bronchospasm, is given below: […]

| pIC50 ([1]; [14C]5-HETE synthesis, read-out: 50% Inhibitory Concentration (IC50), 5-HETE) | pIC50 ([1]; [14C]LTB4 synthesis, read-out: 50% Inhibitory Concentration (IC50), LTB4) | Structure (SMILES) | % Inhibition at 100 μm, 5-HETE ([1]; [14C]5-HETE synthesis) [%] | % Inhibition at 100 μm, LTB4 ([1]; [14C]LTB4 synthesis) [%] | % Inhibition Overflow Volume at 1 min. [2] [%] | % Inhibition Overflow Volume at 3 min. [2] [%] | % Inhibition Overflow Volume at 5 min. [2] [%] |
| --- | --- | --- | --- | --- | --- | --- | --- |
| – | – | COC(=O)C1CC(=O)N(c2cccc(OCc3nc4ccccc4n3C)c2)C1 (centres unmarked) [Example 2A, N-[3-[(1-methyl-2-benzimidazolyl)methoxy]phenyl]pyrrolidin-2-on-4-carboxylic acid, methyl ester] | 34.60 | 32.30 | 56 | 20 | 18 |
| 4.37 | 4.52 | NC1=NN(c2cccc(C(F)(F)F)c2)CC1 [BW755C, 3-amino-1-[m-(trifluoromethyl)phenyl]-2-pyrazoline, reference compound] | – | – | – | – | – |
| – | – | COC(=O)C1CC(=O)N(c2cccc(OCc3nc4ccccc4o3)c2)C1 (centres unmarked) [Example 2B, N-[3-[(2-benzoxazolyl)methoxy]phenyl]pyrrolidin-2-on-4-carboxylic acid, methyl ester] | 87.20 | 82.80 | 26 | 12 | 15 |
| – | – | COC(=O)C1CC(=O)N(c2cccc(OCc3nc4ccccc4s3)c2)C1 (centres unmarked) [Example 1, N-[3-[(2-Benzthiazolyl)methoxy]phenyl]pyrrolidin-2-on-4-carboxylic acid, methyl ester] | 94.30 | 84.50 | 72 | 66 | 68 |
